Laboratory results published in patent US20230310462A1, “COMBINATION DRUG FOR THE CONTROL AND MANAGEMENT OF TYPE 2 DIABETES MELLITUS” (LABORATORIOS SILANES S.A. DE C.V., priority 2020, published 2023).

Tests used:
[1] = Single-dose crossover comparative bioavailability study, fixed combination vs co-administered reference drugs, plasma HPLC-MS/MS
Procedure: In another embodiment of the invention, bioavailability tests are performed to determine whether there are differences in the magnitude and rate of absorption between the test product of this invention (fixed dose combination) and co-administration of reference drugs that impact the bioavailability of the drugs upon administration.
On the other hand, the determination of the pharmacokinetic parameters of Cmax and area under the plasma concentration curve with respect to time (ABC0-t) are determined, which allow characterizing the bioavailability of the drug of this invention from its dosage form, in terms of speed and degree of respective absorption. Therefore, the purpose of the bioavailability tests is to determine if there are differences in the magnitude and speed of absorption between the test product of the present invention (fixed combination) and the co-administration of reference drugs that impact the bioavailability of the drugs when administered under fasting conditions.
A total of 44 healthy volunteers (27 men and 17 women) were randomized in the study. […] After a period of 7 half-lives, the pharmacokinetic effect of washout can be completely disregarded. Each volunteer received the treatments under study according to randomization.
The pharmacokinetic parameters were determined through independent model methods. Descriptive statistics are presented below in Tables 19-21.

[2] = reported, in Mexican population; cited from earlier work
[3] = according to biopharmaceutical classification; cited from earlier work

Intrasubject Variability Coefficient, Ln (ABC0-t) of glimepiride ([1]; both, human, in vivo)	Intrasubject Variability Coefficient, Ln (Cmax) of glimepiride ([1]; both, human, in vivo)	Intrasubject Variability Coefficient, Ln (Cmax) ([1]; both, human, in vivo)	Intrasubject Variability Coefficient, Ln (ABC0-t) ([1]; vildagliptin pharmacokinetic parameter)	Structure (SMILES)	elimination half-life [2]	solubility [3]
15.58%	28.21%			CCC1=C(C)CN(C(=O)NCCc2ccc(S(=O)(=O)NC(=O)N[C@H]3CC[C@H](C)CC3)cc2)C1=O [glimepiride]	7.5 ± 4 h	low
		19.12%	9.14%	N#C[C@@H]1CCCN1C(=O)CN[C@@]12C[C@@H]3C[C@@H](CC(O)(C3)C1)C2 [vildagliptin]		high
